Data as given in patent US20190380986A1, “METHOD FOR PRODUCING EXTRACTS ENRICHED WITH SULFOXIDE-FREE ORGANOSULFUR COMPOUNDS, S-ALKENYL-LCYSTEINE AND S-ALKYL-LCYSTEINE, FROM PLANT RAW MATERIALS, AND USES THEREOF IN THE TREATMENT OF INFLAMMATORY DISEASES” (CANVAX BIOTECH, S.L, priority 2017, published 2019).
“Also recorded” adds a separate entry of the source. Where a name gives a salt, the structure may show the parent alone.

Key:
Type in all cases: in vivo, Dark Agouti rats
[1] = tested on: GSH/GSSG ratio and lipoperoxides (LPO); assay: Biomarkers of oxidative stress (LPO, GSH/GSSG ratio) in brain and spinal cord of EAE rats; conditions: FIG. 4; for GSH/GSSG ratio in brain and spinal cord: Example 3, end of study (35 days), NAC and SAC oral 50 mg/kg, versus untreated EAE
Text: (§1) 70 Dark Agouti rats were used, 35 females and 35 males. Each group of 10 animals had 5 male rats housed in individual boxes and 5 females equally maintained in individual boxes. The following groups were included: i) Controls (untreated healthy animals); ii) vehicle (animals injected in the tail with 100 microlitres of Freund's complete adjuvant (FCA) but without the EAE-inducing peptide, the MOG peptide ([…]); iii) EAE (animals injected once into the tail with 150 μg of MOG (Sigma-Aldrich) in 100 microlitres of FCA); iv) EAE+dimethyl fumarate (EAE+DMF); v) EAE+N-acetyl cysteine (EAE+NAC); and vi) EAE+SAC. The treatments with NAC and SAC were administered to the animals orally using a probe and at a dose of 50 mg/kg of animal weight.
At the end of the study, the animals were decapitated at a controlled temperature using intraperitoneal anaesthesia with ketamine 75 mg/kg (Imalgene 100 mg/ml, Merial Laboratories, Barcelona, Spain). The brains, blood and spinal cord were extracted, weighed and homogenized with a mechanical homogenizer (Tempest Virtis), using 20 mM Tris at pH 7.4 as a buffer. The samples were centrifuged cold and the supernatants were immediately collected and stored at −80° C.
Total protein levels were quantified by the Bradford method and referenced to the original tissue weight. Oxidative stress parameters such as lipid peroxidation (LPO), total glutathione (tG) and reduced glutathione (GSH) were then measured in blood, brain and spinal cord using kits from Bioxytech SA (Oxis International, Portland, Oreg., USA): LPO-586, GSH-420 and GSH-400, respectively. Oxidised glutathione levels (GSSG) were calculated by subtracting reduced glutathione from total glutathione and the GSH/GSSG ratio was calculated.
(§2) The statistical analysis was performed with the SPSS program (SPSS Ibérica, Madrid, Spain). The data are reported as mean±standard deviation (SD). […] To analyse the correlation between the biochemical parameters and the mobility of the animals at 35 days (Clinical assessment-35), Spearman's rho correlation coefficient was used. The level of statistical significance was established at p<0.05.

[2] = tested on: EAE (experimental autoimmune encephalomyelitis); assay: Clinical assessment of mobility in rats with EAE induced by MOG/FCA; conditions: for Change in the clinical assessment of mobility between day 35 and day 14: Example 3, NAC and SAC oral 50 mg/kg, treatment for 21 days, FIG. 3; for Change in the clinical assessment of mobility between days 35 and 14: FIG. 5
Protocol: Next, an experiment was designed to study the effect of SAC in rats with EAE (experimental autoimmune encephalomyelitis), a model of multiple sclerosis widely used for the development of new treatments for this neurodegenerative disease in humans. To evaluate the effect of this compound on the disease, the change in clinical parameters of mobility in each of the joints and in the tail (clinical score or clinical assessment) was measured, as well as the biomarkers of oxidative stress that explain the change in joint mobility in rats.
as §1
The mobility of the rats was evaluated using the method described by Pérez-Nievas (Pérez-Nievas, 2010) in which 0 is equivalent to not having any affected joint or tail; 1 equals paralysis in the tail; 2 equals partial mobility in the hind legs; 3 equals paralysis in the hind legs; 4 equals paralysis in the hind legs and partial mobility in the front legs and 5 equals a dying animal or that must be sacrificed for ethical reasons.
as §2
Next, an experiment was designed to study whether the effect of NAC and SAC were different depending on the dose administered in animal models of EAE. For this, the change in clinical parameters of mobility in each of the joints and the tail (clinical score or clinical assessment) was measured at 2 different doses of NAC and SAC; 18 mg/kg and 50 mg/kg administered orally for 5 days a week and following the same experimental design as Example 3.
(§3) 70 Dark Agouti rats, 35 females and 35 males, were used. Each group of 10 animals had 5 male rats housed in individual boxes and 5 females equally maintained in individual boxes. The following groups were included: i) Controls (untreated healthy animals); ii) vehicle (animals injected in the tail with 100 microlitres of Freund's complete adjuvant (FCA) but without the EAE-inducing peptide, the MOG peptide; iii) EAE (animals injected 1 time in the tail with 150 μg of MOG (Sigma-Aldrich) in 100 microlitres of FCA); iv) EAE+N-acetyl cysteine at 18 mg/kg (EAE+NAC18); v) EAE+N-acetyl cysteine at 50 mg/kg (EAE+NACSO); vi) EAE+SAC at 18 mg/kg (EAE+SAC18) and vii) EAE+SAC at 50 mg/kg (EAE+SAC50). The treatments with NAC and SAC were administered to the animals orally 5 days a week at a dose of 18 mg/kg or 50 mg/kg of the animal's weight.
The analysis of the mobility of the animals, their sacrifice, tissue management, determination of the total proteins and the statistical analysis, was carried out as previously described in Example 3.

[3] = tested on: LBP (lipopolysaccharide binding protein); assay: Soluble LBP levels (ELISA) in brain, spinal cord and blood of EAE rats; conditions: authors' observation in the background section
Protocol: as §3, with “weight. […]” for “weight.”
(§4) The measurement of lipopolysaccharide-binding soluble lipoprotein (LBP) levels was performed with the LBP soluble ELISA Kit (Enzo®, USA), in a sandwich ELISA system following the manufacturer's instructions. The levels of lipopolysaccharide (LPS) in blood and spinal cord were measured with the Pierce LAL Chromogenic endotoxin quantification kit supplied by Thermo Scientific (USA), following the manufacturer's instructions.® The data are presented as endotoxin units per milligram of tissue protein.

[4] = tested on: LPS (bacterial lipopolysaccharide); assay: LPS levels (LAL chromogenic endotoxin kit) in blood and spinal cord of EAE rats; conditions: Example 4, 50 mg/kg orally, SAC compared to NAC at the same concentration, FIG. 7
Protocol: as §3, with “weight. […]” for “weight.”
as §4

[5] = Example 4, 18 mg/kg orally 5 days a week
[6] = Example 4, 50 mg/kg orally 5 days a week

Compound	GSH/GSSG ratio in brain and spinal cord [1]	Change in the clinical assessment of mobility between day 35 and day 14 [2]	Level of LBP after administration in animal models (pro-inflammatory effect) [3]	Change in the clinical assessment of mobility between days 35 and 14 [2, 5]	Change in the clinical assessment of mobility between days 35 and 14 [2, 6]	Levels of LPS in blood and spinal cord [4]	Oxidative damage induced by MOG/FCA (LPO, GSH/GSSG), SAC compared with NAC ([1]; Example 3, oral 50 mg/kg, 35 days)
COC(=O)/C=C/C(=O)OC [DMF, dimethyl fumarate]	increased the GSH/GSSG ratio with respect to untreated animals (EAE); also recorded: induces an increase in the GSH/GSSG ratio	showed a reduction of the clinical assessment of mobility between day 35 and 14	–	–	–	–	–
CC(=O)N[C@@H](CS)C(=O)O [NAC, N-acetylcysteine]	increased the GSH/GSSG ratio with respect to untreated animals (EAE); also recorded: induces an increase in the GSH/GSSG ratio	showed a reduction of the clinical assessment of mobility between day 35 and 14	the level of LBP (lipopolysaccharide binding protein) increases	did not cause a reduction of the clinical assessment of mobility between days 35 and 14	equally effective with respect to the group of animals with EAE without treatment	–	–
C=CCSC[C@H](N)C(=O)O [SAC, S-allyl-L-cysteine]	increased the GSH/GSSG ratio with respect to untreated animals (EAE); also recorded: induces an increase in the GSH/GSSG ratio	showed a reduction of the clinical assessment of mobility between day 35 and 14	–	caused a reduction in the clinical assessment of mobility equivalent to that caused by 50 mg/kg of NAC or SAC	equally effective with respect to the group of animals with EAE without treatment	significantly reduced the levels of LPS in blood and spinal cord compared to NAC	more effective than NAC in minimising oxidative damage induced by MOG/FCA; also recorded: corrects the oxidative damage induced by MOG/FCA to a higher percentage than the NAC
